Consider 30 molecules from patent US5356926A, “3-alkyloxy-, aryloxy-, or arylalkyloxy-benzo [β]thiophene-2-carboxamides as inhibitors of cell adhesion” (Warner-Lambert Company, priority 1993, dated 1994).

The structures appear in SMILES notation.

The test system of one experiment is human neutrophil adhesion to TNFα, IL-1α, and LPS-stimulated human umbilical vein endothelial cells. Nature of the experiment: Inhibition of human neutrophil adhesion to stimulated HUVEC (51Cr-labeled neutrophils). Type of experiment: cell-based. The settings on record: Table 1. The source says: METHOD FOR DETERMINING THE INHIBITION OF HUMAN NEUTROPHIL ADHESION TO TNFα, IL-1α, AND LPS-STIMULATED HUMAN UMBILICAL VEIN ENDOTHELIAL CELLS BY 3-ALKYLOXY-, ARYLOXY-, OR ARYLALKYLOXY BENZO[b]THIOPHENE-2-CARBOXAMIDES
Neutrophils were isolated from anticoagulant-treated venous blood obtained from healthy human volunteers according to the method of Ferrante and Thong (J. Immunol. Methods 1978;24:389-93).
Second passage human umbilical vein endothelial cells (HUVEC) (Clonetics, San Diego, Calif.) were seeded into Falcon 24-well cell culture plates (Becton Dickinson, Lincoln Park, N.J.) at approximately 2×10^4 cells per well. The cells were grown to confluent monolayers in endothelial basal medium (EBM, Clonetics) supplemented with 5% fetal calf serum (Hyclone Laboratories, Logan, Utah), 10 ng/mL EGF, 1 μg/mL hydrocortisone, 0.4% bovine brain extract (Clonetics) in 5% CO2 at 37° C.
Neutrophils (30×10^6) were labeled for 60 minutes at 37° C. with 100 μCi Na^51 CrO4 (ICN Biomedicals, Costa Mesa, Calif.) in 2.0 mL Ca^2+ - and Mg^2+ -free Hanks' balanced salt solution (HBSS, GIBCO Laboratories, Grand Island, N.Y.). The cells were washed two times in HBSS and suspended in unsupplemented EBM.
Stimulation of HUVEC with tumor necrosis factor-α (TNFα) (Genzyme, Cambridge, Mass.) , interleukin (IL-1α) (Genzyrne) or E. coli 0111:B4 lipopolysaccharide (LPS) (Sigma) in the presence or absence of drug was initiated 4 hours prior to the addition of neutrophils. The suspension medium was unsupplemented EBM or supplemented EBM for studies with cytokines or LPS, respectively. […] Immediately prior to addition of ^51 Cr-labeled neutrophils to the HUVEC monolayers, the cultures were washed with 1 mL unsupplemented media to remove stimulus and/or drug. Neutrophils (5×10^5) were then added to the HUVEC in 0.5 mL unsupplemented media and incubated at 37° C. for 30 minutes. Nonadherent neutrophils were removed by aspiration. Following an additional wash, adherent neutrophils were lysed with 0.5 mL 1N NH4 OH overnight at 37° C. Lysates were collected and the radioactivity in each well was determined by gamma ray spectroscopy.
As a reminder, the IC50 is the concentration that gives 50% inhibition. High values mean weaker potency, low ones greater potency. Molecule `CC(C)Oc1c(C(N)=O)sc2ccc(O)cc12` [Example 10, 5-Hydroxy-3-(1-methylethoxy)benzo[b]thiophene-2-carboxamide] displayed an IC50 of 1200 nM.

The same experiment, now with this note: Table 1, at 100 μM.
What is called inhibition is the share of the control response that was lost under treatment. A higher inhibition goes with a response far below the control. `CC(C)Oc1c(C(N)=O)sc2ccc(Cl)cc12` [Example 3, 5-Chloro-3-(1-methylethoxy)benzo[b]thiophene-2-carboxamide] yielded an inhibition at 100 µM of 72%.
For `Cc1ccc2sc(C(N)=O)c(OC(C)C)c2c1` [Example 4, 5-Methyl-3-(1-methylethoxy)benzo[b]thiophene-2-carboxamide], the inhibition at 100 µM turned out to be 61%.
The molecule `CC(C)Oc1c(C(N)=O)sc2ccc([N+](=O)[O-])cc12` [Example 5, 3-(1-Methylethoxy)-5-nitrobenzo[b]thiophene2-carboxamide] showed an inhibition at 100 µM of 40%.
For the molecule `COc1cccc2c(OC(C)C)c(C(N)=O)sc12` [Example 6, 7-Methoxy-3-(1-methylethoxy)benzo[b]thiophene2-carboxamide], the inhibition at 100 µM was 35%.
In turn, `COc1ccc2sc(C(N)=O)c(OC)c2c1` [Example 7, 3,5-Dimethoxybenzo[b]thiophene-2-carboxamide] displayed an inhibition at 100 µM of 60%.
In the case of `COc1ccc2sc(C(N)=O)c(OCc3ccccc3)c2c1` [Example 8, 5-Methoxy-3-(phenylmethoxy)benzo[b]thiophene2-carboxamide], the inhibition at 100 µM turned out to be 57%.
`COc1ccc2c(OC(C)C)c(C(N)=O)sc2c1` [Example 11, 6-Methoxy-3-(1-methylethoxy)benzo[b]thiophene-2-carboxamide] came in with an inhibition at 100 µM of 24%.
As for `COc1ccc2sc(C(N)=O)c(OC(C)(C)C)c2c1` [Example 30, 3-(1,1-Dimethylethoxy)-5-methoxybenzo[b]thiophene2-carboxamide], at 100 µM the inhibition was 100%.
`CC(C)Oc1c(C(N)=O)sc2cc(Cl)ccc12` [Example 31, 6-Chloro-3-(1-thylethoxy)benzo[b]thiophene-2-carboxamide] had an inhibition at 100 µM of 26%.
Take `CC(C)Oc1c(C(N)=O)sc2ccc(N)cc12` [Example 32, 5-Amino-3-(1-methylethoxy)benzo[b]thiophene-2-carboxamide]: 100 µM produced 49% inhibition.

The same experiment, now with this note: Table 2, at 100 μM.
With `COc1ccc2sc(C(=O)Nc3cccc(C(=O)O)c3)c(OC(C)C)c2c1` [Example 13, 3-[[[5-Methoxy-3-(1-methylethoxy)benzo[b]thien-2-yl]carbonyl]amino]benzoic acid], the inhibition at 100 µM is 28%.
The molecule `CCOC(=O)c1ccccc1NC(=O)c1sc2ccc(OC)cc2c1OC(C)C` [Example 14] came in with an inhibition at 100 µM of 32%.
Take `COc1ccc2sc(C(=O)Nc3ccccc3C(=O)O)c(OC(C)C)c2c1` [Example 15, 2-[[[5-Methoxy-3-(1-methylethoxy)benzo[b]thien2-yl]carbonyl]amino]benzoic acid]: 100 µM produced 35% inhibition.
As for `COc1ccc2sc(C(=O)NCc3ccc(C(=O)O)cc3)c(OC(C)C)c2c1` [Example 16, 4-[[[5-Methoxy-3-(1-methylethoxy)benzo[b]thien-2-yl]carbonyl]aminomethyl]benzoic acid], the inhibition at 100 µM is 47%.
Same read-out and setting: to `COC(=O)Cc1ccc(NC(=O)c2sc3ccc(OC)cc3c2OC(C)C)cc1` [Example 17] belongs 27%.
Molecule `COc1ccc2sc(C(=O)Nc3ccc(CC(=O)O)cc3)c(OC(C)C)c2c1` [Example 18, 4-[[[5-Methoxy-3-(1-methylethoxy)benzo[b]thien2-yl]carbonyl]amino]benzeneacetic acid] returned an inhibition at 100 µM of 32%.
The molecule `COC(=O)Cc1cccc(NC(=O)c2sc3ccc(OC)cc3c2OC(C)C)c1` [Example 19, Methyl 3-[[[5-Methoxy-3-(1-methylethoxy)benzo[b]thien-2-yl]carbonyl]amino]benzeneacetate] came in with an inhibition at 100 µM of 45%.
Molecule `COc1ccc2sc(C(=O)Nc3cccc(CC(=O)O)c3)c(OC(C)C)c2c1` [Example 20, 3-[[[5-Methoxy-3-(1-methylethoxy)benzo[b]thien-2-yl]carbonyl]amino]benzeneacetic acid] gave an inhibition at 100 µM of 70%.
The same measure, in the same setting: under `COC(=O)CCCCNC(=O)c1sc2ccc(OC)cc2c1OC(C)C` [Example 21, Methyl 5-[[[5-methoxy-3-(1-methylethoxy)benzo[b]thien2-yl]carbonyl]amino]pentanoate] stands 8%; under `COc1ccc2sc(C(=O)NCCCCC(=O)O)c(OC(C)C)c2c1` [Example 22, 5-[[[5-Methoxy-3-(1-methylethoxy)benzo[b]thien2-yl]carbonyl]amino]pentanoicacid], 9%.
Molecule `COc1ccc2sc(C(=O)Nc3ccsc3C(=O)O)c(OC(C)C)c2c1` [Example 23] showed an inhibition at 100 µM of 20%.
The same measure, in the same setting: to `CNC(=O)c1sc2ccc(OC)cc2c1OC(C)C` [Example 24] belongs 78%; to `CCNC(=O)c1sc2ccc(OC)cc2c1OC(C)C` [Example 25], 64%.
Molecule `COc1ccc2sc(C(=O)Nc3ccccc3)c(OC(C)C)c2c1` [Example 26, 5-Methoxy-3-(1-methylethoxy)-N-phenylbenzo[b]thiophene-2-carboxaraide] displayed an inhibition at 100 µM of 12%.
The same measure, in the same setting: to `COc1ccc2sc(C(=O)NCc3ccccc3)c(OC(C)C)c2c1` [Example 27, 5-Methoxy-3-(1-methylethoxy)-N-(phenylmethyl)benzo[b]thiophene-2-carboxamide] belongs 35%; to `COC(=O)CCCNC(=O)c1sc2ccc(OC)cc2c1OC(C)C` [Example 33, Methyl 4-[[[5-methoxy-3-(1-methylethoxy)benzo[b]thien-2-yl]carbonyl]amino]butanoate], 100%.
For the molecule `COc1ccc2sc(C(=O)NCCCC(=O)O)c(OC(C)C)c2c1` [Example 34, 4-[[[5-Methoxy-3-(1-methylethoxy)benzo[b]thien-2-yl]carbonyl]amino]butanoicacid], testing at 100 µM gave an inhibition of 35%.
As for `COc1ccc2sc(C(=O)NC(C)C)c(OC(C)C)c2c1` [Example 35, 5-Methoxy-3-(1-methylethoxy)-N-(1-methylethyl)benzo[b]thiophene-2-carboxamide], testing at 100 µM gave an inhibition of 100%.

Still in this experiment, the particulars now being: Table 3, at 100 μM.
`COc1ccc2c(c1)C(OC(C)C)=C(C(N)=O)S2(=O)=O` [Example 29, 5-Methoxy-3-(1-methylethoxy)benzo[b]thiophene2-carboxamide 1,1'-dioxide] yielded an inhibition at 100 µM of 4%.
